Experimental data as given in paper PMC12281424, “A Rac-specific competitive inhibitor of guanine nucleotide binding reduces metastasis in triple-negative breast cancer” (Cell Reports Medicine, 2025).

How the values were obtained:
[1] = molecular target: Cholinesterase, Acetyl, ACES (Homo sapiens, UniProt P22303)
Protocol: (§2) Blood cell counts, kinase profiler, safety screen, bacterial cytotoxicity, Ames, micronucleus assays were performed by the company Eurofins (France). The kinase profiler was performed by the company Eurofins (Discovery, Panlab and Cerep).

[2] = molecular target: Aurora-A(h) (Homo sapiens, UniProt O14965); assay: Kinase Profiler; type: biochemical
Protocol: as §2

[3] = molecular target: Angiotensin AT1 (Homo sapiens, UniProt P30556); assay: Safety screen; type: binding
Protocol: as §2

[4] = molecular target: Neuropeptide Y Y1 (Homo sapiens, UniProt P25929); assay: Safety screen; type: binding
Protocol: Blood cell counts, kinase profiler, safety screen, bacterial cytotoxicity, Ames, micronucleus assays were performed by the company Eurofins (France).

[5] = molecular target: Ret (V804L)(h) (Homo sapiens, UniProt P07949, V804L); assay: Kinase Profiler; type: biochemical
Protocol: (§3) The kinase profiler was performed by the company Eurofins (Discovery, Panlab and Cerep).

[6] = molecular target: Blk(h) (Homo sapiens, UniProt P51451); assay: Kinase Profiler; type: biochemical
Protocol: as §2

[7] = molecular target: CDK2/cyclinA(h) (Homo sapiens, UniProt P24941); assay: Kinase Profiler; type: biochemical
Protocol: as §2

[8] = molecular target: CaMKIγ(h) (Homo sapiens, UniProt Q96NX5); assay: Kinase Profiler; type: biochemical
Protocol: as §3

[9] = molecular target: Abl(T315I)(h) (Homo sapiens, UniProt P00519, T315I); assay: Kinase Profiler; type: biochemical
Protocol: as §3

[10] = molecular target: EGFR(h) (Homo sapiens, UniProt P00533); assay: Kinase Profiler; type: biochemical
Protocol: as §3

[11] = molecular target: CHK2(h) (Homo sapiens, UniProt O96017); assay: Kinase Profiler; type: biochemical
Protocol: as §3

[12] = molecular target: ACTR2(h) (Homo sapiens, UniProt P27037); assay: Kinase Profiler; type: biochemical
Protocol: as §3

[13] = molecular target: IKKβ(h) (Homo sapiens, UniProt O14920); assay: Kinase Profiler; type: biochemical
Protocol: as §2

[14] = molecular target: ARK5(h) (Homo sapiens, UniProt O60285); assay: Kinase Profiler; type: biochemical
Protocol: as §2

[15] = molecular target: DNA-PK(h) (Homo sapiens, UniProt P78527); assay: Kinase Profiler; type: biochemical
Protocol: as §3

[16] = system: MDA-MB-468 Luc cells; assay: Focus formation (clonogenic) assay; type: cell-based
Protocol: (§1) Figure 5 A41 decreases growth and invasiveness of TNBC cells in vitro (A) Representative images of RAC-GTP levels (red) in MDA-MB-468 Luc cells in the absence (CTL) and presence of EHT1864, NSC23766, or A41 (1 h at 10 μM) (left). Luciferase (Luc, green) was used to detect the cells. RAC-GTP mean fluorescence intensity was quantified inside the cell area (right) (n = 31–37 cells from 3 independent experiments; ∗p < 0.05, ∗∗∗p < 0.001) (scale bars: 10 μm). […] (C) Quantification of colony number of indicated cancer cell lines in the presence of A41 (10 μM) expressed as the percentage of control in the absence of A41. Results shown are representative of N > 3 independent experiments. (D) Immunoblot analysis and corresponding quantification of AKT and P44/42 expression and phosphorylation (pAKT, p44/42) in MDA-MB-468 Luc cells in the absence (−) and presence of NSC23766 or A41 (1 h at 10^−5 M). Results shown are representative of 3 independent experiments. ∗∗p < 0.01 vs. untreated cells, ^###p < 0.001 vs. NSC23766-treated cells. (E) 3D invasion assay of MDA-MB-468 Luc and cancer-associated fibroblasts (CAFs) and corresponding quantification (scale bars: 200 μm). […]
1000 cells/well from the indicated cancer cell lines were seeded in 6-wells plates and allowed to grow 2 days before treatments. […] The area occupied by the cells was then quantified with ImageJ software.

[17] = molecular target: MARK1(h) (Homo sapiens, UniProt Q9P0L2); assay: Kinase Profiler; type: biochemical
Protocol: as §3

[18] = system: MDA-MB-468 spheroids; assay: 3D invasion assay; type: cell-based; conditions: 10^-5 M
Protocol: as §1, with “Results shown are representative of 3 independent experiments. ∗∗p < 0.01 vs. untreated cells, ^###p < 0.001 vs. NSC23766-treated cells.” left out
3D-spheroids were obtained, according the protocol previously described,[62] by re-suspending cells at a concentration of 1.25 × 10^4 cells/ml in 20% Methyl-cellulose/80% DMEM 10% FBS. […] Invasion was monitored by fully automated Dmi6000b Wide Field Fluorescence Microscope (Leica Microsystems, Wetzlar, Germany) during 48h.

[19] = molecular target: CDK14/cyclinY(h) (Homo sapiens, UniProt O94921); assay: Kinase Profiler; type: biochemical
Protocol: as §2

[20] = molecular target: cKit(V560G)(h) (Homo sapiens, UniProt P10721, V560G); assay: Kinase Profiler; type: biochemical
Protocol: as §2

[21] = molecular target: Cannabinoid CB1 (Homo sapiens, UniProt P21554); assay: Safety screen; type: binding
[22] = molecular target: CaMKIß(h) (Homo sapiens, UniProt Q6P2M8); assay: Kinase Profiler; type: biochemical
Protocol: as §2

[23] = molecular target: TLK2(h) (Homo sapiens, UniProt Q86UE8); assay: Kinase Profiler; type: biochemical
Protocol: as §3

[24] = molecular target: Fyn(h) (Homo sapiens, UniProt P06241); assay: Kinase Profiler; type: biochemical
Protocol: as §3

[25] = molecular target: Serotonin (5-Hydroxytryptamine) 5-HT2A (Homo sapiens, UniProt P28223); assay: Safety screen; type: binding
Protocol: as §2

[26] = molecular target: Protein Tyrosine Kinase, LCK (Homo sapiens, UniProt P06239); assay: Safety screen; type: biochemical
Protocol: as §3

CaMKIγ(h), sequence (Q96NX5 whole entry): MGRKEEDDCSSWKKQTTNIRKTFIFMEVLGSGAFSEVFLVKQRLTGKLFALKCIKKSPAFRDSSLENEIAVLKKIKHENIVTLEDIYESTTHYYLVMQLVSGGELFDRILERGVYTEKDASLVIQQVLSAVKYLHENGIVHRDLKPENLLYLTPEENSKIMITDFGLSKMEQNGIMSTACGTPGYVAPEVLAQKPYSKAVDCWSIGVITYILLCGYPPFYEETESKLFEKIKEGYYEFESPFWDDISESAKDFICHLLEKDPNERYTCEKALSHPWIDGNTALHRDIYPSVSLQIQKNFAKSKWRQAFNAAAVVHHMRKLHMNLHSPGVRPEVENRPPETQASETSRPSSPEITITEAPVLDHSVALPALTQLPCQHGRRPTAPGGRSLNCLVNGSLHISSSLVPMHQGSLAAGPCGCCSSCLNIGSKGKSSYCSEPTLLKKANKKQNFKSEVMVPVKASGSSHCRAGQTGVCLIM
Neuropeptide Y Y1, sequence (P25929 whole entry): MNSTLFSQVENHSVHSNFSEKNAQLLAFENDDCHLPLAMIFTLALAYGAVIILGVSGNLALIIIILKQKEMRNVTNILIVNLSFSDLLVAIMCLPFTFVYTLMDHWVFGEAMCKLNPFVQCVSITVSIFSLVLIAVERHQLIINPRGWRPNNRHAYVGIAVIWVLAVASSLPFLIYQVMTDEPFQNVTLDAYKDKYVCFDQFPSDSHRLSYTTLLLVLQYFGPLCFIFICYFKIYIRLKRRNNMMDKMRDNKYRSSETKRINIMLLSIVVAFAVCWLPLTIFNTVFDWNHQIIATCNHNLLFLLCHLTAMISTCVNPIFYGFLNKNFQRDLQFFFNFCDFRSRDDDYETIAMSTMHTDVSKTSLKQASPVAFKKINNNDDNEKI
Serotonin (5-Hydroxytryptamine) 5-HT2A, sequence (P28223 whole entry): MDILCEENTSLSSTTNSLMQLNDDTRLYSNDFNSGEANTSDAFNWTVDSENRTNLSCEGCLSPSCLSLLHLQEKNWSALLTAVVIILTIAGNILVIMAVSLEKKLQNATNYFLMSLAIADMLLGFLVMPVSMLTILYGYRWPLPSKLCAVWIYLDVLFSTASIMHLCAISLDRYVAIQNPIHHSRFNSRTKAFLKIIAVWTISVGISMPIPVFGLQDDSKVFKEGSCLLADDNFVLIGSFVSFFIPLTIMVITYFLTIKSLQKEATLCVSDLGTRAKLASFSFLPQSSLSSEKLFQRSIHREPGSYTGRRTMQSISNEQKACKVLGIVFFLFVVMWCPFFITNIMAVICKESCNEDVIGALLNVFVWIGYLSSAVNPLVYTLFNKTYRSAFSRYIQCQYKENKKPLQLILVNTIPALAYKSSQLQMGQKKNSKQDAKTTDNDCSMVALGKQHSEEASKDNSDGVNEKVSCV
CHK2(h), sequence (O96017 whole entry): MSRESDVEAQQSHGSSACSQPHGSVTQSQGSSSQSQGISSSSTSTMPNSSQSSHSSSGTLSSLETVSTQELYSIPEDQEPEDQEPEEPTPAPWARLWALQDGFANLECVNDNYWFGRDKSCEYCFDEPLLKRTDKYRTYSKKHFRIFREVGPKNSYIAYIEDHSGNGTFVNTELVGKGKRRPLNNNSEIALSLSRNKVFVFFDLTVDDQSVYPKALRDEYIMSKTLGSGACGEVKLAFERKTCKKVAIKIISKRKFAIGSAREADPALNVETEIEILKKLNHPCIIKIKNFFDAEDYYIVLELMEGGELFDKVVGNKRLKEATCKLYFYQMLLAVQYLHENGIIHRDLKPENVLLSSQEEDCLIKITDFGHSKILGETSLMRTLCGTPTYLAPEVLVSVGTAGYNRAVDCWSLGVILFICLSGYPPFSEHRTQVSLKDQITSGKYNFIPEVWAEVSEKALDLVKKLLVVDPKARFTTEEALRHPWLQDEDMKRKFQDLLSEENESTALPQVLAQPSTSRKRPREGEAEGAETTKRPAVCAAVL
ARK5(h), sequence (O60285 whole entry): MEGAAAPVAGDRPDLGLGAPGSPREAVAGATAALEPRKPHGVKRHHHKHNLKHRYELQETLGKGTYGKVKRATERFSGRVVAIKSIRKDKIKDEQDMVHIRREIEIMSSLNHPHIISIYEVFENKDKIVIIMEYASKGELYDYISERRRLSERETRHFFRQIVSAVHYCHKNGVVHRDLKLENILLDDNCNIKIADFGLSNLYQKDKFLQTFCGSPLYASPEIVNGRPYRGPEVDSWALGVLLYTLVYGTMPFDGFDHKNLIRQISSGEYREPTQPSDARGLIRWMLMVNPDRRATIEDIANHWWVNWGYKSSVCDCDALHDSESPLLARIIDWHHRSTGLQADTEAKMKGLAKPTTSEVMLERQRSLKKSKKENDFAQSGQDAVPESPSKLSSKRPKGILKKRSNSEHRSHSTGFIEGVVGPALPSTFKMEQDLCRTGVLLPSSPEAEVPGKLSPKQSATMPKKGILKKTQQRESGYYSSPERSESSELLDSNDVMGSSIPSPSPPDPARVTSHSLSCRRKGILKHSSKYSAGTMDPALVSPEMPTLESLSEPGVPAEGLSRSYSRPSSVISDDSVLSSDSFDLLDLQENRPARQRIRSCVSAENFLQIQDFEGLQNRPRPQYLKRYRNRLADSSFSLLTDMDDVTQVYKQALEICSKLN
Cholinesterase, Acetyl, ACES, sequence (P22303 32-614): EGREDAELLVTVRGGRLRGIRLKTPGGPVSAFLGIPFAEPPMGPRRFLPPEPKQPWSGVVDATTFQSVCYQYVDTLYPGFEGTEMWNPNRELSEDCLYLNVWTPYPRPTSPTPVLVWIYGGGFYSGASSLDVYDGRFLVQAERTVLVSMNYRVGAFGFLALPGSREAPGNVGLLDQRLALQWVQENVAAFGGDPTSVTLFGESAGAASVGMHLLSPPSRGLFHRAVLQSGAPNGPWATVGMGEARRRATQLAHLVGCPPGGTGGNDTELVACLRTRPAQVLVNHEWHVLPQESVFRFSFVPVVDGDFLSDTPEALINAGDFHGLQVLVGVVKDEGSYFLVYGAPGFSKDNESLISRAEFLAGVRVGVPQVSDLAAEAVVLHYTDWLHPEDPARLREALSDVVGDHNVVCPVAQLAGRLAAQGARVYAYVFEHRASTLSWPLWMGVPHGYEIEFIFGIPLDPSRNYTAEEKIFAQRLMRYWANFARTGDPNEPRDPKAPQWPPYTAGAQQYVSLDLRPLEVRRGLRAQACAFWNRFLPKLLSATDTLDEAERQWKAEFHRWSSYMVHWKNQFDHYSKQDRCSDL
Aurora-A(h), sequence (O14965 whole entry): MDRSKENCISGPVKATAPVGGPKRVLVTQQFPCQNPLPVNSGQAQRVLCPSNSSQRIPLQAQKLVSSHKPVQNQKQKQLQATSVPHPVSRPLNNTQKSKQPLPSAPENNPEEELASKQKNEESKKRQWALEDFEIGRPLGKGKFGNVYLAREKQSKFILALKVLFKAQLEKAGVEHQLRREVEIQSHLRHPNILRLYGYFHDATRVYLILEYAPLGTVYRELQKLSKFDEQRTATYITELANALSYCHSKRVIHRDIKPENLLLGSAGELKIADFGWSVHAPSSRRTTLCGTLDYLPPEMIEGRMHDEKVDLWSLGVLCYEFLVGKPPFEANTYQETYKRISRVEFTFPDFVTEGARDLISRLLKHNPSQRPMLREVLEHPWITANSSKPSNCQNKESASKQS
Fyn(h), sequence (P06241 whole entry): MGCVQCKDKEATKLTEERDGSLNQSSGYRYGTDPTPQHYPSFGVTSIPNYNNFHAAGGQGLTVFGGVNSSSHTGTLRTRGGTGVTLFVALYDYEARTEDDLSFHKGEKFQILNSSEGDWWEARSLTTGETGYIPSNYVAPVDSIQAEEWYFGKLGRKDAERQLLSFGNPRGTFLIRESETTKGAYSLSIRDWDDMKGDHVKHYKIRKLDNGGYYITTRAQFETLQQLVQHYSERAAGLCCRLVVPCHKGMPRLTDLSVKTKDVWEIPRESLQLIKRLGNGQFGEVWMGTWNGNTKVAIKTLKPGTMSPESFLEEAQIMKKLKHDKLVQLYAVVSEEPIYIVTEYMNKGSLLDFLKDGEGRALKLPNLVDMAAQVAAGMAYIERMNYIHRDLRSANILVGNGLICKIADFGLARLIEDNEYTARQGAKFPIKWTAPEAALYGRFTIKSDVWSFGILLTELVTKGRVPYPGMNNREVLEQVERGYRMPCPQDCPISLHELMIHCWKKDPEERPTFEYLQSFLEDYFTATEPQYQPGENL
cKit(V560G)(h), sequence (P10721 26-976 V560G): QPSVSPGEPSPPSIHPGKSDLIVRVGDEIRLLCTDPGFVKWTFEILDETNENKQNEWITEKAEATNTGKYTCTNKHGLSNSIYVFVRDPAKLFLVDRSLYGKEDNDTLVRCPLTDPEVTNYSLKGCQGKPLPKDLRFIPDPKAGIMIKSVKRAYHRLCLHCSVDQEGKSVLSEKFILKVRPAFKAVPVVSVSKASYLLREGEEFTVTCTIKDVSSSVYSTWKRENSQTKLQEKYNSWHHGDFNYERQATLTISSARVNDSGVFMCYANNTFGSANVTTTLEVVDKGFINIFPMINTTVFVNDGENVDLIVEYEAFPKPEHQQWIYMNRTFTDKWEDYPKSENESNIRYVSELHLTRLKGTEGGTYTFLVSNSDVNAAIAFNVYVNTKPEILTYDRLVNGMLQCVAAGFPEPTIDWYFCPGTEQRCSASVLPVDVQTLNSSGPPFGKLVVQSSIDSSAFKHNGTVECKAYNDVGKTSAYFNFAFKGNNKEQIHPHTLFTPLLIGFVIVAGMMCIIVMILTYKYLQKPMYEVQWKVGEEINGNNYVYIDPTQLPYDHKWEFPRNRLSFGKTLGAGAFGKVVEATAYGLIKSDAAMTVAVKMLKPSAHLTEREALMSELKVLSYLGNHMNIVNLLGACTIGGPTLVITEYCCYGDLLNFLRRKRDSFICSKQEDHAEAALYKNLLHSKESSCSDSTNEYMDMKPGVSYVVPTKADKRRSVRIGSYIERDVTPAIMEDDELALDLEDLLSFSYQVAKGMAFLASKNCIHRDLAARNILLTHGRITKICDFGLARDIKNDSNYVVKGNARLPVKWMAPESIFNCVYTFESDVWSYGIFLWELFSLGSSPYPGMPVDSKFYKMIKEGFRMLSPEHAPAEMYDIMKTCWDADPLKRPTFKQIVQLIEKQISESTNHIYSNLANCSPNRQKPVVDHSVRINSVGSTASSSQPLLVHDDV

For COc1ccc(OC)c(NS(=O)(=O)c2ccc(NC(=O)CCSc3ccc(C)cc3)cc2)c1 [Compound A41], the “% inh.” value [1] was 64%, the “Activity(%)” value [2] was 124% and the “% inh.” value [3] was 17%. The “% inh.” value [4] was -2%, the “Activity(%)” value [5] was 93% and the “Activity(%)” value [6] was 99%. The “Activity(%)” value [7] was 97%, the “Activity(%)” value [8] was 121% and the “Activity(%)” value [9] was 117%. The “Activity(%)” value [10] was 115%, the “Activity(%)” value [11] was 111% and the “Activity(%)” value [12] was 108%. The “Activity(%)” value [13] was 110%, the “Activity(%)” value [14] was 106% and the “Activity(%)” value [15] was 122%. The IC50 ([16]; dose-response curve, Figure 5B, read-out: IC50, colony formation) was 2.1 µM, the colony formation ([16]; increasing concentrations) was “significantly inhibited colony formation in a dose-dependent manner” and the “Activity(%)” value [17] was 110%. The “size of the spheroids” value [18] was “not affected”, the “migration area of spheroids” value ([18]; 3D collagen gel) was “reduced the migration area” and the “Activity(%)” value [19] was 89%. The “Activity(%)” value [20] was 115%, the “% inh.” value [21] was 81% and the “Activity(%)” value [22] was 114%. For the same compound, the “Activity(%)” value [23] was 101%, the “Activity(%)” value [24] was 102% and the “% inh.” value [25] was 84%. For the same compound, the “% inh.” value [26] was 14%.
